Data as given in US20120142705A1, “ISATIN AND OXINDOLE COMPOUNDS” (priority 2010, published 2012).

Each compound was assayed against T1, Recombinant human liver GK1 (GST-GK) (Homo sapiens, UniProt P35557) (assay: In vitro glucokinase activity, G6PDH-coupled spectrophotometric assay). Details: 5 mM D-glucose, 30° C., pH 7.1.
T1 construct: made in house; host or cells: E. coli
T1 sequence (P35557 1-466 isoform P35557-2): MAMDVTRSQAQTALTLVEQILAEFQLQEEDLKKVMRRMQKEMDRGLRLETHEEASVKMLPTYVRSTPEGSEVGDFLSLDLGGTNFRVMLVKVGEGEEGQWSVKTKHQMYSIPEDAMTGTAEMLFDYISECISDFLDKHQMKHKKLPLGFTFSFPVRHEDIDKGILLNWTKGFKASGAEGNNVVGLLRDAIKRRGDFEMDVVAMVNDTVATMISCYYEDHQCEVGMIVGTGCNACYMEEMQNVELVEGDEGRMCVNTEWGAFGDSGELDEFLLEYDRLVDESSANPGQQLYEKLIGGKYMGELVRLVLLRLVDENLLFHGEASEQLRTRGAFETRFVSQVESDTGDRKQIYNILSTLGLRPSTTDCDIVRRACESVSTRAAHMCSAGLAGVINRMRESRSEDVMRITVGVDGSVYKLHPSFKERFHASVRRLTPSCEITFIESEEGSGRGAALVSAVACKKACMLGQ
Assay type: biochemical
Method: Glucokinase In Vitro Assay Protocol: Glucokinase (GK) was assayed by coupling the production of glucose-6-phosphate to the generation of NADH with glucose-6-phosphate dehydrogenase (G6PDH, 0.75-1 kunits/mg; Boehringer Mannheim, Indianapolis, Ind.) from Leuconostoc mesenteroides as the coupling enzyme (Scheme 2).
Recombinant human liver GK1 was expressed in E. coli as a glutathione S-transferase fusion protein (GST-GK) [Liang et al, 1995] and was purified by chromatography over a glutathione-Sepharose 4B affinity column using the procedure provided by the manufacturer (Amersham Pharmacia Biotech, Piscataway, N.J.).
The assay was conducted at 30° C. in a flat bottom 96-well tissue culture plate from Costar (Cambridge, Mass.) with a final incubation volume of 120 μL. The incubation reaction contained the following: 25 mM Hepes buffer (pH 7.1), 25 mM KCl, 5 mM D-glucose, 1 mM ATP, 1.8 mM NAD, 2 mM MgCl2, 1 μM sorbitol-6-phosphate, 1 mM dithiothreitol, test drug or 10% dimethylsulfoxide, ˜7 units/ml G6PDH, and GK (see below). All organic reagents were >98% pure and were from Boehringer Mannheim with the exceptions of D-glucose and Hepes which were from Sigma Chemical Co, St Louis, Mo. Test compounds were dissolved in dimethylsulfoxide and were added to the incubation reaction minus GST-GK in a volume of 12 μL to yield a final dimethylsulfoxide concentration of 10%. This mix was pre-incubated in the temperature controlled chamber of a SPECTRAmax 250 microplate spectrophotometer (Molecular Devices Corporation, Sunnyvale, Calif.) for 10 minutes to allow temperature equilibrium and then the reaction was started by the addition of 20 μL GST-GK.
After addition of enzyme, the increase in optical density (OD) at 340 nm was monitored spectrophotometrically to determine the rate of change (OD340 per min). The GK activity (OD340/min) in control wells (10% dimethylsulfoxide minus GK activators) was compared with the activity in wells containing test GK activators, and the concentration of activator that produced a 50% increase in the activity of GK, i.e., the SC1.5, was calculated.

Structure (SMILES) | SC1.5 (concentration of activator that produced a 50% increase in the activity of GK) [µM]
CC(C)CC(C(=O)Nc1ccccn1)N1C(=O)Cc2ccc(Cl)cc21 (stereo not shown) [Example 114, 2-(6-Chloro-2-oxo-2,3-dihydro-indol-1-yl)-4-methyl-pentanoic acid pyridin-2-ylamide] | 0.91
COc1ccc2c(c1)C(=O)C(=O)N2C(CC1CCCC1)C(=O)Nc1nccs1 (stereo not shown) [Example 48, 3-Cyclopentyl-2-(5-methoxy-2,3-dioxo-2,3-dihydro-indol-1-yl)-N-thiazol-2-yl-propionamide] | 5.48
CC(C)CC(C(=O)Nc1ccccn1)N1C(=O)Cc2ccccc21 (stereo not shown) [Example 12, 4-Methyl-2-(2-oxo-2,3-dihydro-indol-1-yl)-pentanoic acid pyridin-2-ylamide] | 18.09
CC(C)CC(C(=O)Nc1ccccn1)N1C(=O)C(=O)c2ccc(Cl)cc21 (stereo not shown) [Example 110, 2-(6-Chloro-2,3-dioxo-2,3-dihydro-indol-1-yl)-4-methyl-pentanoic acid pyridin-2-ylamide] | 1.49
Cn1ccc(NC(=O)C(CC2CCCC2)N2C(=O)C(=O)c3cc(Br)ccc32)n1 (stereo not shown) [Example 62, 2-(5-Bromo-2,3-dioxo-2,3-dihydro-indol-1-yl)-3-cyclopentyl-N-(1-methyl-1H-pyrazol-3-yl)-propionamide] | 6.18
O=C(Nc1ccccn1)C(CC1CCCC1)N1C(=O)Cc2c(Cl)cccc21 (stereo not shown) [Example 21, 2-(4-Chloro-2-oxo-2,3-dihydro-indol-1-yl)-3-cyclopentyl-N-pyridin-2-yl-propionamide] | 1.23
O=C(Nc1ccccn1)C(CC1CCCC1)N1C(=O)Cc2ccccc21 (stereo not shown) [Example 8, 3-Cyclopentyl-2-(2-oxo-2,3-dihydro-indol-1-yl)-N-pyridin-2-yl-propionamide] | 4.93
O=C(Nc1ccccn1)C(CC1CCCC1)N1C(=O)Cc2ccc(Cl)cc21 (stereo not shown) [Example 122, 2-(6-Chloro-2-oxo-2,3-dihydro-indol-1-yl)-3-cyclopentyl-N-pyridin-2-yl-propionamide] | 0.1
O=C1C(=O)N(C(CC2CCCC2)C(=O)Nc2ccccn2)c2ccc(Br)cc21 (stereo not shown) [Example 61, 2-(5-Bromo-2,3-dioxo-2,3-dihydro-indol-1-yl)-3-cyclopentyl-N-pyridin-2-yl-propionamide] | 0.95
O=C1C(=O)N(C(CC2CCCC2)C(=O)Nc2cnccn2)c2ccc(Br)cc21 (stereo not shown) [Example 60, 2-(5-Bromo-2,3-dioxo-2,3-dihydro-indol-1-yl)-3-cyclopentyl-N-pyrazin-2-yl-propionamide] | 5.48
CC(C)CC(C(=O)Nc1cnccn1)N1C(=O)C(=O)c2cc(OC(F)(F)F)ccc21 (stereo not shown) [Example 37, 2-(2,3-Dioxo-5-trifluoromethoxy-2,3-dihydro-indol-1-yl)-4-methyl-pentanoic acid pyrazin-2-ylamide] | 19.72
Cn1ccc(NC(=O)C(CC2CCCC2)N2C(=O)Cc3cc(Cl)ccc32)n1 (stereo not shown) [Example 99, 2-(5-Chloro-2-oxo-2,3-dihydro-indol-1-yl)-3-cyclopentyl-N-(1-methyl-1H-pyrazol-3-yl)-propionamide] | 3.3
Cc1ccc2c(c1)C(=O)C(=O)N2C(CC1CCCC1)C(=O)Nc1ccn(C)n1 (stereo not shown) [Example 78, 3-Cyclopentyl-2-(5-methyl-2,3-dioxo-2,3-dihydro-indol-1-yl)-N-(1-methyl-1H-pyrazol-3-yl)-propionamide] | 29.38
O=C(Nc1nccs1)C(CC1CCCC1)N1C(=O)Cc2c(Cl)cccc21 (stereo not shown) [Example 22, 2-(4-Chloro-2-oxo-2,3-dihydro-indol-1-yl)-3-cyclopentyl-N-thiazol-2-yl-propionamide] | 1.98
O=C1C(=O)N(C(CC2CCCC2)C(=O)Nc2nccs2)c2ccc(Cl)cc21 (stereo not shown) [Example 92, 2-(5-Chloro-2,3-dioxo-2,3-dihydro-indol-1-yl)-3-cyclopentyl-N-thiazol-2-yl-propionamide] | 3.01
Cc1ccc2c(c1)CC(=O)N2C(CC1CCCC1)C(=O)Nc1ccn(C)n1 (stereo not shown) [Example 81, 3-Cyclopentyl-2-(5-methyl-2-oxo-2,3-dihydro-indol-1-yl)-N-(1-methyl-1H-pyrazol-3-yl)-propionamide] | 11.29
O=C(Nc1ccccn1)C(CC1CCCC1)N1C(=O)Cc2cc(OC(F)(F)F)ccc21 (stereo not shown) [Example 33, 3-Cyclopentyl-2-(2-oxo-5-trifluoromethoxy-2,3-dihydro-indol-1-yl)-N-pyridin-2-yl-propionamide] | 0.13
Cc1ccc2c(c1)CC(=O)N2C(CC1CCCC1)C(=O)Nc1nccs1 (stereo not shown) [Example 82, 3-Cyclopentyl-2-(5-methyl-2-oxo-2,3-dihydro-indol-1-yl)-N-thiazol-2-yl-propionamide] | 2.45
Cc1ccc2c(c1)CC(=O)N2C(CC1CCCC1)C(=O)Nc1ccccn1 (stereo not shown) [Example 80, 3-Cyclopentyl-2-(5-methyl-2-oxo-2,3-dihydro-indol-1-yl)-N-pyridin-2-yl-propionamide] | 3.83
COc1ccc2c(c1)CC(=O)N2C(CC1CCCC1)C(=O)Nc1ccccn1 (stereo not shown) [Example 49, 3-Cyclopentyl-2-(5-methoxy-2-oxo-2,3-dihydro-indol-1-yl)-N-pyridin-2-yl-propionamide] | 1.74

Same assay, conditions: @ 30 uM; 5 mM D-glucose, 30° C.

Structure (SMILES) | fold induction at 30 µM
CC(C)CC(C(=O)Nc1cnccn1)N1C(=O)C(=O)c2cc(Br)ccc21 (stereo not shown) [Example 68, 2-(5-Bromo-2,3-dioxo-2,3-dihydro-indol-1-yl)-4-methyl-pentanoic acid pyrazin-2-ylamide] | 1.32
CC(C)CC(C(=O)Nc1ccn(C)n1)N1C(=O)C(=O)c2cc(Cl)ccc21 (stereo not shown) [Example 104, 2-(5-Chloro-2,3-dioxo-2,3-dihydro-indol-1-yl)-4-methyl-pentanoic acid (1-methyl-1H-pyrazol-3-yl)-amide] | 1.21
Cc1ccc2c(c1)CC(=O)N2C(CC(C)C)C(=O)Nc1ccn(C)n1 (stereo not shown) [Example 89, 4-Methyl-2-(5-methyl-2-oxo-2,3-dihydro-indol-1-yl)-pentanoic acid (1-methyl-1H-pyrazol-3-yl)-amide] | 1.23
Cc1ccc2c(c1)C(=O)C(=O)N2C(CC(C)C)C(=O)Nc1ccccn1 (stereo not shown) [Example 85, 4-Methyl-2-(5-methyl-2,3-dioxo-2,3-dihydro-indol-1-yl)-pentanoic acid pyridin-2-ylamide] | 1.16
Cc1ccc2c(c1)C(=O)C(=O)N2C(CC(C)C)C(=O)Nc1cnccn1 (stereo not shown) [Example 84, 4-Methyl-2-(5-methyl-2,3-dioxo-2,3-dihydro-indol-1-yl)-pentanoic acid pyrazin-2-ylamide] | 1.29
Cc1ccc2c(c1)C(=O)C(=O)N2C(CC(C)C)C(=O)Nc1ccn(C)n1 (stereo not shown) [Example 86, 4-Methyl-2-(5-methyl-2,3-dioxo-2,3-dihydro-indol-1-yl)-pentanoic acid (1-methyl-1H-pyrazol-3-yl)-amide] | 1.44
CC(C)CC(C(=O)Nc1cnccn1)N1C(=O)C(=O)c2c(Cl)cccc21 (stereo not shown) [Example 17, 2-(4-Chloro-2,3-dioxo-2,3-dihydro-indol-1-yl)-4-methyl-pentanoic acid pyrazin-2-ylamide] | 1.39
CC(C)CC(C(=O)Nc1nccs1)N1C(=O)C(=O)c2cc(Cl)ccc21 (stereo not shown) [Example 101, 2-(5-Chloro-2,3-dioxo-2,3-dihydro-indol-1-yl)-4-methyl-pentanoic acid thiazol-2-ylamide] | 1.4
